Tests used:
[1] = tested on: bacterial strains TA 1535, TA 1537, TA 1538, TA 98 and TA 100; assay: Ames test for mutagenicity, revertant colony counts; conditions: 50, 150, 500, 1500, 5000 μg/plate, with and without metabolic activation, five strains
[2] = tested on: bacterial strains TA 1535, TA 1537, TA 1538, TA 98 and TA 100; assay: Preliminary test for toxicity to the bacterial strains (Ames test); conditions: for precipitates observed: 5000 μg dose, all strains

Row | Molecule | increase of revertant colony counts over control values [1] | precipitates observed [2] | toxicity to the bacterial strains ([2]; doses up to and including 5000 μg/plate) | mutagenic to TA 100 (TA 100) | mutagenic to TA 1535 (TA 1535)
1 | O=NN(Cc1ccccc1)Cc1ccccc1 [N-nitrosodibenzylamine] | no increase of revertant colony counts over control values | precipitates were observed | non-toxic |  | 
2 | zinc diisononyldithiocarbamate [Example 1] | no increase of revertant colony counts over control values | precipitates were observed |  |  | 
3 | CN(C)N=O [dimethylnitrosamine] |  |  |  | mutagenic | mutagenic
4 | N-nitrosodiisononylamine | no increase of revertant colony counts over control values |  |  |  | 
